Reference: ChEMBL document CHEMBL6074684, “Structure-activity relationship study of novel evodiamine amino acid conjugates with potent anti-colorectal cancer efficacy” (Eur J Med Chem, 2025)

Assays:
Assay type in all cases: functional, cell-based
HT-29 = assay: Antiproliferative activity against human HT-29 cells assessed as inhibition of cell growth incubated for 72 hrs by MTT assay; settings: HT-29, 72 h
HCT-116 = assay: Antiproliferative activity against human […] cells assessed as inhibition of cell growth incubated for 72 hrs by MTT assay; settings: HCT-116, 72 h
LoVo = assay: Antiproliferative activity against human LoVo cells assessed as inhibition of cell growth incubated for 72 hrs by MTT assay
RKO = assay: Antiproliferative activity against human RKO cells assessed as inhibition of cell growth incubated for 72 hrs by MTT assay
HGC-27 = assay: Antiproliferative activity against human HGC-27 cells assessed as inhibition of cell growth incubated for 72 hrs by MTT assay; settings: HGC-27, 72 h
MGC-803 = assay: Antiproliferative activity against human MGC-803 cells assessed as inhibition of cell growth incubated for 72 hrs by MTT assay; settings: MGC-803, 72 h
SGC-7901 = assay: Antiproliferative activity against human SGC-7901 cells assessed as inhibition of cell growth incubated for 72 hrs by MTT assay; settings: SGC-7901, 72 h
Huh-7 = assay: Antiproliferative activity against human Huh-7 cells assessed as inhibition of cell growth incubated for 72 hrs by MTT assay; settings: Huh-7, 72 h
SK-HEP1 = assay: Antiproliferative activity against human SK-HEP1 cells assessed as inhibition of cell growth incubated for 72 hrs by MTT assay; settings: SK-HEP1, 72 h
MCF7 = assay: Antiproliferative activity against human MCF7 cells assessed as inhibition of cell growth incubated for 72 hrs by MTT assay; settings: MCF7, 72 h

| Structure (SMILES) | IC50 (HT-29) [nM] | IC50 (HCT-116) [nM] | IC50 (LoVo) [nM] | IC50 (RKO) [nM] | IC50 (HGC-27) [nM] | IC50 (MGC-803) [nM] | IC50 (SGC-7901) [nM] | IC50 (Huh-7) [nM] | IC50 (SK-HEP1) [nM] | IC50 (MCF7) [nM] |
| --- | --- | --- | --- | --- | --- | --- | --- | --- | --- | --- |
| CC(C)[C@H](NC(=O)OC(C)(C)C)C(=O)Oc1ccc2[nH]c3c(c2c1)CCN1C(=O)c2cc(F)ccc2N(c2cccc(F)c2)[C@H]31 | 340 | 430 | 290 | 200 | 420 | 380 | 810 | 280 | 1150 | 980 |
| CSCC[C@H](NC(=O)OC(C)(C)C)C(=O)Oc1ccc2[nH]c3c(c2c1)CCN1C(=O)c2cc(F)ccc2N(c2cccc(F)c2)[C@@H]31 | 28700 | 20200 | 14900 | 20500 | 28600 | 17800 | 46100 | 13800 | 38500 | 50500 |
| C[C@H](NC(=O)OC(C)(C)C)C(=O)Oc1ccc2[nH]c3c(c2c1)CCN1C(=O)c2cc(F)ccc2N(c2cccc(F)c2)[C@H]31 | 280 | 370 | 230 | 120 | 270 | 310 | 630 | 160 | 2650 | 1980 |
| O=C1c2cc(F)ccc2N(c2cccc(F)c2)[C@H]2c3[nH]c4ccc(O)cc4c3CCN12 | 180 | 350 | 130 | 100 |  |  |  |  |  |  |
| CC(C)(C)OC(=O)N[C@@H](Cc1c[nH]c2ccccc12)C(=O)Oc1ccc2[nH]c3c(c2c1)CCN1C(=O)c2cc(F)ccc2N(c2cccc(F)c2)[C@H]31 | 540 | 280 | 250 | 80 | 330 | 690 | 1480 | 400 | 900 | 1280 |
| C[C@H](NC(=O)OC(C)(C)C)C(=O)Oc1ccc2[nH]c3c(c2c1)CCN1C(=O)c2cc(F)ccc2N(c2cccc(F)c2)[C@@H]31 | 18600 | 18200 | 19700 | 15900 | 20300 | 11300 | 40200 | 11700 | 26600 | 28500 |
| CC(C)(C)OC(=O)NCC(=O)Oc1ccc2[nH]c3c(c2c1)CCN1C(=O)c2cc(F)ccc2N(c2cccc(F)c2)[C@@H]31 | 24100 | 33100 | 26400 | 38600 | 32100 | 29600 | 42600 | 17200 | 30500 | 38900 |
| CC(C)C[C@H](NC(=O)OC(C)(C)C)C(=O)Oc1ccc2[nH]c3c(c2c1)CCN1C(=O)c2cc(F)ccc2N(c2cccc(F)c2)[C@@H]31 | 21400 | 16800 | 10200 | 10500 | 18600 | 7560 | 41800 | 9730 | 35100 | 22700 |
| CC(C)C[C@H](NC(=O)OC(C)(C)C)C(=O)Oc1ccc2[nH]c3c(c2c1)CCN1C(=O)c2cc(F)ccc2N(c2cccc(F)c2)[C@H]31 | 190 | 370 | 220 | 150 | 300 | 320 | 690 | 140 | 650 | 1100 |
| CC(C)(C)OC(=O)N[C@@H](Cc1c[nH]c2ccccc12)C(=O)Oc1ccc2[nH]c3c(c2c1)CCN1C(=O)c2cc(F)ccc2N(c2cccc(F)c2)[C@@H]31 | 30200 | 24200 | 18300 | 15900 | 25600 | 18600 | 67300 | 13500 | 36600 | 30600 |
| CC(C)(C)OC(=O)N[C@@H](Cc1cnc[nH]1)C(=O)Oc1ccc2[nH]c3c(c2c1)CCN1C(=O)c2cc(F)ccc2N(c2cccc(F)c2)[C@@H]31 | 28300 | 21000 | 12400 | 16300 | 23700 | 15500 | 66500 | 12800 | 33500 | 47000 |
| CC(C)(C)OC(=O)NCC(=O)Oc1ccc2[nH]c3c(c2c1)CCN1C(=O)c2cc(F)ccc2N(c2cccc(F)c2)[C@H]31 | 260 | 200 | 170 | 95 | 200 | 210 | 480 | 160 | 1390 | 1190 |
| CC(C)(C)OC(=O)N[C@@H](COCc1ccccc1)C(=O)Oc1ccc2[nH]c3c(c2c1)CCN1C(=O)c2cc(F)ccc2N(c2cccc(F)c2)[C@@H]31 | 29400 | 24600 | 15300 | 16800 | 20600 | 16200 | 57100 | 10100 | 35900 | 22100 |
| CCC(C)[C@H](NC(=O)OC(C)(C)C)C(=O)Oc1ccc2[nH]c3c(c2c1)CCN1C(=O)c2cc(F)ccc2N(c2cccc(F)c2)[C@H]31 (some centres undefined) | 440 | 550 | 320 | 230 | 520 | 480 | 1570 | 310 | 970 | 810 |
| CC(C)(C)OC(=O)N[C@@H](Cc1cnc[nH]1)C(=O)Oc1ccc2[nH]c3c(c2c1)CCN1C(=O)c2cc(F)ccc2N(c2cccc(F)c2)[C@H]31 | 360 | 360 | 120 | 110 | 160 | 200 | 230 | 270 | 770 | 740 |
| CC(C)(C)OC(=O)N[C@@H](Cc1ccccc1)C(=O)Oc1ccc2[nH]c3c(c2c1)CCN1C(=O)c2cc(F)ccc2N(c2cccc(F)c2)[C@@H]31 | 30500 | 26200 | 15700 | 19500 | 22700 | 15900 | 47700 | 11800 | 37800 | 47300 |
| CC(C)[C@H](NC(=O)OC(C)(C)C)C(=O)Oc1ccc2[nH]c3c(c2c1)CCN1C(=O)c2cc(F)ccc2N(c2cccc(F)c2)[C@@H]31 | 25800 | 29000 | 21900 | 11900 | 22300 | 20800 | 44300 | 14200 | 37800 | 30400 |
| CCC(C)[C@H](NC(=O)OC(C)(C)C)C(=O)Oc1ccc2[nH]c3c(c2c1)CCN1C(=O)c2cc(F)ccc2N(c2cccc(F)c2)[C@@H]31 (some centres undefined) | 52500 | > 100000 | 55800 | > 100000 | 55700 | > 100000 | > 100000 | 46000 | 62400 | 69800 |
| CSCC[C@H](NC(=O)OC(C)(C)C)C(=O)Oc1ccc2[nH]c3c(c2c1)CCN1C(=O)c2cc(F)ccc2N(c2cccc(F)c2)[C@H]31 | 330 | 360 | 200 | 140 | 210 | 330 | 510 | 210 | 680 | 780 |
| CC(C)(C)OC(=O)N[C@@H](Cc1ccccc1)C(=O)Oc1ccc2[nH]c3c(c2c1)CCN1C(=O)c2cc(F)ccc2N(c2cccc(F)c2)[C@H]31 | 430 | 360 | 230 | 90 | 280 | 220 | 490 | 200 | 770 | 950 |
| CC(C)(C)OC(=O)N[C@@H](COCc1ccccc1)C(=O)Oc1ccc2[nH]c3c(c2c1)CCN1C(=O)c2cc(F)ccc2N(c2cccc(F)c2)[C@H]31 | 380 | 400 | 190 | 110 | 320 | 410 | 540 | 300 | 650 | 830 |
